Experimental findings from patent US9199946B2, “Pyrimidinone carboxamide inhibitors of endothelial lipase” (BRISTOL-MYERS SQUIBB COMPANY, priority 2012, dated 2015) are described below.

The first assay concerns the target T1, Endothelial lipase (EL) (Homo sapiens, UniProt Q9Y5X9).
T1 construct: HT-1080 cells, which were transformed by RAGE technology (Athersys) to overexpress endogenous EL; endogenous in cells; conditioned medium used as the enzyme source
T1 sequence (Q9Y5X9 21-500): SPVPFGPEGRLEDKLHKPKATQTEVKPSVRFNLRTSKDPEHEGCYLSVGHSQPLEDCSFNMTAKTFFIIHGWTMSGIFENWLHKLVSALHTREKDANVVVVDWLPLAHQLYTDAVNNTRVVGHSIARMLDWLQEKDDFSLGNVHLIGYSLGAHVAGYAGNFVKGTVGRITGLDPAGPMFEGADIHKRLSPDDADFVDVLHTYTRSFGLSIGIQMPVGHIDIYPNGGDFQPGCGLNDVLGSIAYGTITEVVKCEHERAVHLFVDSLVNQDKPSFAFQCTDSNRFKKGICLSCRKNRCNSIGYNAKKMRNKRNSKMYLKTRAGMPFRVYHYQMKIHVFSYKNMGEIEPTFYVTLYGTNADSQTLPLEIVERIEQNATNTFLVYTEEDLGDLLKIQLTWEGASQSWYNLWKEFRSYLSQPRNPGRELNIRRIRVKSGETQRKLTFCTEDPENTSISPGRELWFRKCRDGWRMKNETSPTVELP
Kind of assay: Endothelial lipase (EL) enzymatic assay with fluorescent substrate A10070 in DMPG vesicles. In kind it is biochemical. The note with it: conditioned media from HT-1080 cells overexpressing endogenous EL; 20 min preincubation at 37° C.; read-out: EL IC50. In short, it runs like this:
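The enzyme source was conditioned medium from HT-1080 cells engineered to overexpress endogenous EL. It was preincubated with compound for 20 min at 37 °C in 50 mM HEPES pH 8.0, 50 mM NaCl, 1 mM CaCl2. Reactions started with DMPG vesicles carrying FRET substrate A10070 (mole fraction 0.05). The rate was taken from the linear slope of fluorescence (ex 488/em 530 nm) over 10 min.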
By IC50 is commonly meant the concentration that inhibits the measured activity by half. In the case of `Nc1c(C(=O)NC2CCC(c3cccc(OCc4ccccc4)c3)C2)[nH]c(=O)[nH]c1=O` (stereo not shown) [Example 158, 5-amino-N-(3-(3-(benzyloxy)phenyl)cyclopentyl)-2,6-dioxo-1,2,3,6-tetrahydropyrimidine-4-carboxamide], the IC50 was found to be 0.525 µM.

For `Cn1nccc1-c1ccc([C@@H]2CC[C@H](NC(=O)c3[nH]c(=O)[nH]c(=O)c3N)C2)cc1` [Example 163, 5-amino-N-((1S,3R)-3-(4-(1-methyl-1H-pyrazol-5-yl)phenyl)cyclopentyl)-2,6-dioxo-1,2,3,6-tetrahydropyrimidine-4-carboxamide], the IC50 was 2.25 µM.

For the molecule `Nc1c(C(=O)N[C@@H]2CC[C@H](c3ccc(-c4cnn(CCN5CCOCC5)c4)cc3)C2)[nH]c(=O)[nH]c1=O` [Example 164, 5-amino-N-((1R,3S)-3-(4-(1-(2-morpholinoethyl)-1H-pyrazol-4-yl)phenyl)cyclopentyl)-2,6-dioxo-1,2,3,6-tetrahydropyrimidine-4-carboxamide], the IC50 was 0.788 µM.

The assay is the same for the next values; noted with them: range observed in the EL assay; read-out: EL IC50 values.
Consider `Nc1c(C(=O)N[C@@H]2CC[C@@H](C(=O)N[C@H]3CC[C@@H](c4ccccc4)CC3)C2)[nH]c(=O)[nH]c1=O` [Example 147, 5-amino-2,6-dioxo-N-((1R,3R)-3-(cis-4-phenylcyclohexylcarbamoyl)cyclopentyl)-1,2,3,6-tetrahydropyrimidine-4-carboxamide], for which the IC50 is at most 10 µM.

As for `Nc1c(C(=O)N[C@@H]2CC[C@@H](C(=O)NCc3nc4ccccc4s3)C2)[nH]c(=O)[nH]c1=O` [Example 148, 5-amino-N-((1R,3R)-3-(benzo[d]thiazol-2-ylmethylcarbamoyl)cyclopentyl)-2,6-dioxo-1,2,3,6-tetrahydropyrimidine-4-carboxamide], the IC50 was at most 10 µM.

In the case of `Nc1c(C(=O)N[C@@H]2CC[C@@H](C(=O)Nc3cnn(Cc4ccccc4)c3)C2)[nH]c(=O)[nH]c1=O` [Example 149, 5-amino-N-((1R,3R)-3-(1-benzyl-1H-pyrazol-4-ylcarbamoyl)cyclopentyl)-2,6-dioxo-1,2,3,6-tetrahydropyrimidine-4-carboxamide], the IC50 is at most 10 µM.

For the molecule `Nc1c(C(=O)N[C@@H]2CC[C@@H](C(=O)N[C@H]3CC[C@@H](c4cccc(C(F)(F)F)c4)CC3)C2)[nH]c(=O)[nH]c1=O` [Example 150, 5-amino-2,6-dioxo-N-((1R,3R)-3-(cis-4-(3-(trifluoromethyl)phenyl)cyclohexylcarbamoyl)cyclopentyl)-1,2,3,6-tetrahydropyrimidine-4-carboxamide], the IC50 was at most 10 µM.

Take `Cc1nn(C)c(C)c1-c1ccc([C@@H]2CC[C@H](NC(=O)c3[nH]c(=O)[nH]c(=O)c3N)C2)cc1` [Example 159, 5-amino-2,6-dioxo-N-((1S,3R)-3-(4-(1,3,5-trimethyl-1H-pyrazol-4-yl)phenyl)cyclopentyl)-1,2,3,6-tetrahydropyrimidine-4-carboxamide]: the IC50 was at most 10 µM.

On to `CCOC(=O)Cn1cc(-c2ccc([C@@H]3CC[C@H](NC(=O)c4[nH]c(=O)[nH]c(=O)c4N)C3)cc2)cn1` [Example 160, ethyl 2-(4-(4-((1R,3S)-3-(5-amino 2,6-dioxo-1,2,3,6-tetrahydropyrimidine-4-carboxamido)cyclopentyl)phenyl) 1H-pyrazol-1-yl)acetate], for which the IC50 was at most 10 µM.

Turning to `COc1ccc(-c2ccc([C@@H]3CC[C@H](NC(=O)c4[nH]c(=O)[nH]c(=O)c4N)C3)cc2)cc1OC` [Example 161, 5-amino-N-((1S,3R)-3-(3′,4′-dimethoxybiphenyl-4-yl)cyclopentyl)-2,6-dioxo-1,2,3,6-tetrahydropyrimidine-4-carboxamide], the IC50 is at most 10 µM.

Take `CC(=O)Nc1ccccc1-c1ccc([C@@H]2CC[C@H](NC(=O)c3[nH]c(=O)[nH]c(=O)c3N)C2)cc1` [Example 162, N-((1S,3R)-3-(2′-acetamidobiphenyl-4-yl)cyclopentyl)-5-amino-2,6-dioxo-1,2,3,6-tetrahydropyrimidine-4-carboxamide]: the IC50 was at most 10 µM.

Take `Cn1nccc1-c1ccc([C@@H]2CC[C@H](NC(=O)c3[nH]c(=O)[nH]c(=O)c3N)C2)cc1` [Example 163, 5-amino-N-((1S,3R)-3-(4-(1-methyl-1H-pyrazol-5-yl)phenyl)cyclopentyl)-2,6-dioxo-1,2,3,6-tetrahydropyrimidine-4-carboxamide]: the IC50 was at most 10 µM.

With `Nc1c(C(=O)N[C@@H]2CC[C@H](c3ccc(-c4cnn(CCN5CCOCC5)c4)cc3)C2)[nH]c(=O)[nH]c1=O` [Example 164, 5-amino-N-((1R,3S)-3-(4-(1-(2-morpholinoethyl)-1H-pyrazol-4-yl)phenyl)cyclopentyl)-2,6-dioxo-1,2,3,6-tetrahydropyrimidine-4-carboxamide], the IC50 was at most 10 µM.

For `Cc1c(-c2ccc([C@H]3CC[C@@H](NC(=O)c4[nH]c(=O)[nH]c(=O)c4N)C3)cc2)cnn1-c1ccccc1` [Example 165, 5-amino-N-((1R,3S)-3-(4-(5-methyl-1-phenyl-1H-pyrazol-4-yl)phenyl)cyclopentyl)-2,6-dioxo-1,2,3,6-tetrahydropyrimidine-4-carboxamide], the IC50 was at most 10 µM.

As to `CN(C)c1cccc(-c2ccc([C@@H]3CC[C@H](NC(=O)c4[nH]c(=O)[nH]c(=O)c4N)C3)cc2)c1` [Example 166, 5-amino-N-((1S,3R)-3-(3′-(dimethylamino)biphenyl-4-yl)cyclopentyl)-2,6-dioxo-1,2,3,6-tetrahydropyrimidine-4-carboxamide], the IC50 is at most 10 µM.

In the case of `Nc1c(C(=O)N[C@H]2CC[C@@H](c3ccc(-c4ccccc4)cc3)C2)[nH]c(=O)[nH]c1=O` [Example 167, 5-amino-N-((1S,3R)-3-(biphenyl-4-yl)cyclopentyl)-2,6-dioxo-1,2,3,6-tetrahydropyrimidine-4-carboxamide], the IC50 was at most 10 µM.

Turning to `COc1ccc(-c2ccc([C@@H]3CC[C@H](NC(=O)c4[nH]c(=O)[nH]c(=O)c4N)C3)cc2)cc1` [Example 168, 5-amino-N-((1S,3R)-3-(4′-methoxybiphenyl-4-yl)cyclopentyl)-2,6-dioxo-1,2,3,6-tetrahydropyrimidine-4-carboxamide], the IC50 was at most 10 µM.

In the case of `Cc1ccc(-c2ccc([C@@H]3CC[C@H](NC(=O)c4[nH]c(=O)[nH]c(=O)c4N)C3)cc2)cc1` [Example 169, 5-amino-N-((1S,3R)-3-(4′-methylbiphenyl-4-yl)cyclopentyl)-2,6-dioxo-1,2,3,6-tetrahydropyrimidine-4-carboxamide], the IC50 is at most 10 µM.

As for `Nc1c(C(=O)N[C@H]2CC[C@@H](c3ccc(-c4ccc(Cl)cc4)cc3)C2)[nH]c(=O)[nH]c1=O` [Example 170, 5-amino-N-((1S,3R)-3-(4′-chlorobiphenyl-4-yl)cyclopentyl)-2,6-dioxo-1,2,3,6-tetrahydropyrimidine-4 carboxamide], the IC50 was at most 10 µM.

Turning to `CC(C)Cn1cc(-c2ccc([C@@H]3CC[C@H](NC(=O)c4[nH]c(=O)[nH]c(=O)c4N)C3)cc2)cn1` [Example 172, 5-amino-N-((1S,3R)-3-(4-(1-isobutyl-1H-pyrazol-4-yl)phenyl)cyclopentyl)-2,6-dioxo-1,2,3,6-tetrahydropyrimidine-4-carboxamide], the IC50 is at most 10 µM.

For `Cn1nc(C(F)(F)F)cc1-c1ccc([C@H]2CC[C@@H](NC(=O)c3[nH]c(=O)[nH]c(=O)c3N)C2)cc1` [Example 173, 5-amino-N-((1R,3S)-3-(4-(1-methyl-3-(trifluoromethyl)-1H-pyrazol-5-yl)phenyl)cyclopentyl)-2,6-dioxo-1,2,3,6-tetrahydropyrimidine-4-carboxamide], the IC50 was at most 10 µM.

For `Nc1c(C(=O)N[C@H]2CC[C@@H](c3ccc(-c4ccccc4CO)cc3)C2)[nH]c(=O)[nH]c1=O` [Example 174, 5-amino-N-((1S,3R)-3-(2′-(hydroxymethyl)biphenyl-4-yl)cyclopentyl)-2,6-dioxo-1,2,3,6-tetrahydropyrimidine-4-carboxamide], the IC50 is at most 10 µM.
